Tests used:
VZV strain Ellen = assay: VZV antiviral (ELISA) assay in human foreskin fibroblast cells; assay type: cell-based, varicella-zoster virus
Outline: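 HFF cells infected with VZV Ellen (MOI <0.1) overnight, then plated at 3.5x10^4 cells/well with compound in DMEM + 2% FBS for three days at 37°C, 5% CO2. Viral glycoprotein II quantified by ELISA with β-galactosidase-linked secondary and 4-methylumbelliferyl-galactoside fluorescence (365/450 nm); IC50 versus no-compound fluorescence.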

[1] = tested on: HCMV recombinant mutant virus; assay: microbe, parasite or virus in culture; assay type: cell-based, human cytomegalovirus; details: HCMV; the table does not say which HCMV assay
Outline: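 Human foreskin fibroblasts were infected with a recombinant HCMV carrying a beta-glucuronidase gene under a viral promoter, in the presence of compound. At 96 h post-infection, lysate beta-glucuronidase activity was read colorimetrically or fluorometrically as a replication marker. IC50 came from the compound dose range.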

HSV-1 = assay: HSV antiviral (ELISA) assay in Vero cells; assay type: cell-based, herpes simplex virus type 1; details: HSV-1 in Vero cells
Outline: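 Vero cells in DMEM/2% FBS treated with compound 30 min before HSV-1 infection (MOI 0.006), ~24 h at 37 °C. Viral glycoprotein D measured by cell ELISA with β-galactosidase-linked secondary and fluorogenic methylumbelliferyl galactoside (ex 365/em 450 nm); IC50 versus no-compound fluorescence.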

**Q.** Which “% inhibition 10 ug/ml VZV” value (VZV strain Ellen; 10 ug/ml) does the source give for “(5H,11H-Benzo[e]pyrrolo[1,2-a][1,4]diazepin-10-yl)-(2-chloro-4-imidazol-1-yl-phenyl)-methanone [Example 322]” here?
**A.** The value was 108%.

**Q.** What about the “IC50 (ug/ml) VZV” value (VZV strain Ellen; VZV strain Ellen in HFF cells) of the same substance?
**A.** The value was 8 µg/mL.

**Q.** And the “IC50 (ug/ml) HCMV” value [1]?
**A.** Its value is 7 µg/mL.

**Q.** And the “IC50 (ug/ml) HSV” value (HSV-1)?
**A.** The value was 4 µg/mL.
